Assay results published in patent publication US11976083B2, “Inhibitors of peptidylarginine deiminases” (Gilead Sciences, Inc., priority 2020, dated 2024).

Target: T1, human PAD4 (Homo sapiens, UniProt Q9UM07)
T1 construct: human PAD4 (NM_012387), A2-P663, was PCR amplified; His-SUMO (N, cleaved yes); made in house; host or cells: E. coli BL21(DE3)
Experiment: In vitro PAD4 BAEE biochemical assay
Conditions: BAEE substrate 3 mM, 5 nM PAD4, 2 mM calcium chloride; geometric mean of multiple experiments
Outline: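 Fluorescence read-out (ex 405/em 535 nm) of isoindole formed from ammonia, o-phthalaldehyde and DTT after EDTA stop. Reaction: 5 nM PAD4, 2 mM CaCl2, 3 mM BAEE, 2 h, 25 °C, after 30 min enzyme–compound preincubation. Normalised to BB-Cl-Amidine (50 µM) and DMSO controls.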

T1 sequence (Q9UM07 2-663): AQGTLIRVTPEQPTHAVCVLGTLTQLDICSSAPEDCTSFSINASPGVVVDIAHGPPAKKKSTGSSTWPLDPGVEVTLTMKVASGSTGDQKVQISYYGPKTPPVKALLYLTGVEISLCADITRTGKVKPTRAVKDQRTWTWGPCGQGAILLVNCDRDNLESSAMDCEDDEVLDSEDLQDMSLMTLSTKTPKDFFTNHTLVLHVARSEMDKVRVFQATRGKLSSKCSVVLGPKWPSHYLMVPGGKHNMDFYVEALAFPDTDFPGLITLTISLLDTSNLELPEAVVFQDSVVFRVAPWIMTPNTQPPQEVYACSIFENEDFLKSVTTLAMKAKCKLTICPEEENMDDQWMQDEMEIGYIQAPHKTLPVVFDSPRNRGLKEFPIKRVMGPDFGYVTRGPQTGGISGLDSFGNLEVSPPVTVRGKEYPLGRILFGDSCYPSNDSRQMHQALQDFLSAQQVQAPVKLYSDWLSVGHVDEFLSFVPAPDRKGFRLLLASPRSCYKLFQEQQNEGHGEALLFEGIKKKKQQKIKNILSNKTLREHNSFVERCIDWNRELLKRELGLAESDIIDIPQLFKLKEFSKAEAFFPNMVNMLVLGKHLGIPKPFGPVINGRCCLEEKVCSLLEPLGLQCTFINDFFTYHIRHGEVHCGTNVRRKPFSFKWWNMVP

Row | Structure (SMILES) | IC50
1 | COc1cc(C(=O)N2CCC[C@@H](N)C2)cc2nc(-c3cc4ccc5cc4n3CCCCCC[C@@H]3CCN(C3=O)[C@@H]5C)n(C)c12 [Example 113, (2~{R},6~{R})-14-[5-[(3~{R})-3-aminopiperidine-1-carbonyl]-7-methoxy-1-methyl-benzimidazol-2-yl]-2-methyl-3,13-diazatetracyclo[11.5.2.1^{3,6}.0^{16,20}] henicosa-1(19),14,16(20),17-tetraen-21-one] | 302 nM
2 | COc1cc(C(=O)N2CCC[C@@H](N)C2)cc2nc(-c3cc4ccc5nc4n3C[C@@H]3C[C@@H]3COCCC(=O)N[C@@H]5C)n(C)c12 [Example 305, (3~{R},5~{S},12~{R})-18-[5-[(3~{R})-3-aminopiperidine-1-carbonyl]-7-methoxy-1-methyl-benzimidazol-2-yl]-12-methyl-7-oxa-1,11,20-triazatetracyclo[11.5.2.0^{3,5).0^{16,19}] icosa-13(20),14,16(19),17-tetraen-10-one] | 65 nM
3 | CO[C@@H]1CCN(C(=O)c2ccc3c(c2)nc(-c2cc4ccc5nc4n2CCCCC[C@@H]2C[C@H]2C(=O)N[C@@H]5C)n3C2CC2)C[C@@H]1N [Example 691, (2~{R},5~{R},7~{R})-14-[5-[(3~{S},4~{R})-3-amino-4-methoxy-piperidine-1-carbonyl]-1-cyclopropyl-benzimidazol-2-yl]-2-methyl-3,13,19-triazatetracyclo[11.5.2.0^ {5,7}.0^{16,20}]icosa-1(19),14,16(20),17-tetraen-4-one] | 33 nM
4 | C[C@H]1NC(=O)c2ccc(C(F)F)nc2CCCCCn2c(-c3nc4cc(C(=O)N5C[C@H](N)[C@@H]6CC[C@H]5C6)cc(F)c4n3[C@@H]3C[C@H]3F)cc3ccc1nc32 [Example 776, (2~{R})-17-[5-[(1~{S},4~{R}, 5~{R})-4-amino-2-azabicyclo [3.2.1]octane-2-carbonyl]-7-fluoro-1-[(1~{R},2~{R})-2-fluorocyclopropyl]benzimidazol-2-yl]-8-(difluoromethyl)-2-methyl-3,9,16,22-tetrazatetracyclo[14.5.2.0^ {5,10).0^{19,23}]tricosa-1(22),5(10),6,8,17,19(23),20-heptaen-4-one] | 17 nM
5 | C[C@H]1NC(=O)[C@@H]2C[C@H]2CCCCCn2c(-c3nc4cc(C(=O)N[C@H]5CNCC[C@@H]5F)c(F)cc4n3CC3(C#N)CC3)cc3ccc1nc32 [Example 406, 1-[(1-cyanocyclopropyl)methyl]-6-fluoro-~{N}-[(3~{S},4~{S})-4-fluoro-3-piperidyl]-2-[(2~{R},5~{R},7~{R})-2-methyl-4-oxo-3,13,19-triazatetracyclo[11.5.2.0^{5,7}.0^{16,20}]icosa-1(19),14,16(20),17-tetraen-14-yl]benzimidazole-5-carboxamide] | 22 nM
6 | COc1cc(C(=O)N2CCC[C@@H](N)[C@H]2C)cc2nc(-c3cc4ccc5nc4n3CC(F)(F)CCCc3cncc(F)c3C(=O)N[C@@H]5C)n(C)c12 [Example 679, (2~{R})-17-[5-[(2~{R},3~ {R})-3-amino-2-methyl-piperidine-1-carbonyl]-7-methoxy-1-methyl-benzimidazol-2-yl]-6,14,14-trifluoro-2-methyl-3,8,16,22-tetrazatetracyclo[14.5.2.0^ {5,10).0^{19,23}] tricosa-1(22),5(10),6,8,17, 19(23),20-heptaen-4-one] | 33 nM
7 | C[C@H]1NC(=O)c2ccc(Cl)nc2CCCCCn2c(-c3nc4cc(C(=O)N5C[C@H](N)[C@@H]6CC[C@H]5C6)cc(F)c4n3C)cc3ccc1nc32 [Example 469, (2~{R})-17-[5-[(1~{S),4~{R},5~{R})-4-amino-2-azabicyclo[3.2.1]octane-2-carbonyl]-7-fluoro-1-methyl-benzimidazol-2-yl]-8-chloro-2-methyl-3,9,16,22-tetrazatetracyclo[14.5.2.0^{5,10).0^ {19,23)]tricosa-1(21),5(10),6,8,17,19,22-heptaen-4-one] | 21 nM
8 | COc1cc(C(=O)N2[C@H]3CC[C@@H]2[C@H](N)C3)cc2nc(-c3cc4ccc5nc4n3CCCCCCCCOc3ncccc3-5)n(C)c12 [Example 86, [(1~{R},2~{R},4~{S})-2-amino-7-azabicyclo[2.2.1]heptan-7-yl]-[7-methoxy-1-methyl-2-(8-oxa-6,17,23-triazatetracyclo[15.5.2.0^{2,7}.0^{20,24}]tetracosa-1(23),2,4,6,18,20(24),21-heptaen-18-yl)benzimidazol-5-yl]methanone] | 643 nM
9 | COc1cc(C(=O)N2[C@H]3CC[C@@H]2[C@H](N)C3)cc2nc(-c3cc4ccc5cc4n3CCCCCOC(C)(C)C(=O)N[C@@H]5C)n(C)c12 [Example 222, (11~{R})-17-[5-[(1~{R},2~{R},4~{S})-2-amino-7-azabicyclo[2.2.1]heptane-7-carbonyl]-7-methoxy-1-methyl-benzimidazol-2-yl]-8,8,11-trimethyl-7-oxa-1,10-diazatricyclo[10.5.2.0^{15,18}]nonadeca-12(19),13,15(18),16-tetraen-9-one] | 64 nM
10 | C[C@H]1NC(=O)c2ccccc2CCCC(F)(F)Cn2c(-c3nc4cc(C(=O)N[C@H]5CNCC[C@@H]5F)c(F)cc4n3C)cc3ccc1nc32 [Example 597, 2-[(2~{R})-14,14-difluoro-2-methyl-4-oxo-3,16,22-triazatetracyclo[14.5.2.0^ {5,10}.0^{19,23}]tricosa-1(21),5(10),6,8,17,19,22-heptaen-17-yl]-6-fluoro-~ {N}-[(3~{S},4~{S})-4-fluoro-3-piperidyl]-1-methyl-benzimidazole-5-carboxamide] | 42 nM

Results, then the compound that gave them:

Row | IC50 | Structure (SMILES)
11 | 9 nM | C[C@H]1NC(=O)[C@@H]2C[C@H]2CC(F)(F)CCCn2c(-c3nc4cc(C(=O)N[C@H]5CNCC[C@@H]5F)c(F)cc4n3C)cc3ccc1nc32 [Example 625, 2-[(2~{R},5~{R},7~{S})-9,9-difluoro-2-methyl-4-oxo-3,13,19-triazatetracyclo[11.5.2.0^ {5,7}.0^{16,20}]icosa-1(19),14,16(20),17-tetraen-14-yl]-6-fluoro-~ {N}-[(3~{S},4~{S})-4-fluoro-3-piperidyl]-1-methyl-benzimidazole-5-carboxamide]
12 | 31 nM | C[C@H]1NC(=O)[C@H]2[C@@H](CCCC(F)(F)Cn3c(-c4nc5cc(C(=O)N[C@H]6CNCC[C@@H]6F)c(F)cc5n4C4CC4)cc4ccc1nc43)C2(F)F [Example 389, 1-cyclopropyl-6-fluoro-~{N}-[(3~{S},4~{S})-4-fluoro-3-piperidyl]-2-[(2~{R},5~{R},7~{R})-6,6,11,11-tetrafluoro-2-methyl-4-oxo-3,13,19-triazatetracyclo[11.5.2.0^{5,7}.0^{16,20}]icosa-1(19),14,16(20),17-tetraen-14-yl]benzimidazole-5-carboxamide]
13 | 34 nM | C[C@H]1NC(=O)c2cnccc2CCCCCn2c(-c3nc4cc(C(=O)N[C@H]5CNCC[C@@H]5F)c(F)cc4n3C)cc3ccc1nc32 [Example 349, 6-fluoro-~{N}-[(3~{S},4~{S})-4-fluoro-3-piperidyl]-1-methyl-2-[(2~{R})-2-methyl-4-oxo-3,7,16,22-tetrazatetracyclo[14.5.2.0^{5,10}.0^{19,23}]tricosa-1(22),5,7,9,17,19(23),20-heptaen-17-yl]benzimidazole-5-carboxamide]
14 | 193 nM | COc1cc(C(=O)N2CCC[C@@H](N)C2)cc2nc(-c3cc4ccc5nc4n3CCCCCCNC(=O)c3c-5ccnc3F)n(C)c12 [Example 56, 17-[5-[(3~{R})-3-aminopiperidine-1-carbonyl]-7-methoxy-1-methyl-benzimidazol-2-yl]-6-fluoro-5,9,16,22-tetrazatetracyclo[14.5.2.0^{2,7}.0^{19,23}] tricosa-1(22),2,4,6,17,19(23),20-heptaen-8-one]
15 | 123 nM | C[C@H]1NC(=O)C(C)(C)CCCCCCn2c(-c3nc4cc(C(=O)N[C@H]5CNCC[C@@H]5F)c(Cl)cc4n3C)cc3ccc1nc32 [Example 541, 6-chloro-~{N}-[(3~ {S),4~{S})-4-fluoro-3-piperidyl]-1-methyl-2-[(11~{R})-8,8,11-trimethyl-9-oxo-1,10,19-triazatricyclo[10.5.2.0^ {15,18}]nonadeca-12(19), 13,15(18),16-tetraen-17-yl]benzimidazole-5-carboxamide]
16 | 51 nM | C[C@H]1NC(=O)[C@@H]2C[C@H]2CCCCCn2c(-c3nc4cc(C(=O)N[C@H]5CNCC[C@@H]5F)c(F)cc4n3C3C[C@@H]3C(F)F)cc3ccc1nc32 (single isomer, unassigned) [Example 410, 1-[(1~{R},2~{S})-2-(difluoromethyl)cyclopropyl]-6-fluoro-~ {N}-[(3~{S},4~{S})-4-fluoro-3-piperidyl]-2-[(2~{R},5~{R},7~{R})-2-methyl-4-oxo-3,13,19-triazatetracyclo[11.5.2.0^{5,7}.0^{16,20}]icosa-1(19),14,16(20),17-tetraen-14-yl]benzimidazole-5-carboxamide]
17 | 44 nM | COC(C)Cn1c(-c2cc3ccc4nc3n2CCCCC[C@@H]2C[C@H]2C(=O)N[C@@H]4C)nc2cc(C(=O)N[C@H]3CNCC[C@@H]3F)c(F)cc21 (stereo partly drawn) [Example 430, 6-fluoro-~{N}-[(3~{S},4~{S})-4-fluoro-3-piperidyl]-1-(2-methoxypropyl)-2-[(2~{R},5~{R},7~{R})-2-methyl-4-oxo-3,13,19-triazatetracyclo[11.5.2.0^{5,7}.0^{16,20}]icosa-1(19),14,16(20),17-tetraen-14-yl]benzimidazole-5-carboxamide]
18 | 83 nM | COc1cc(C(=O)N2CC[C@@H](C)[C@@H](N)[C@@H]2C)cc2nc(-c3cc4ccc5nc4n3CC(F)(F)CCC[C@@H]3C[C@H]3C(=O)N[C@@H]5C)n(C)c12 [Example 676, (2~{R},5~{R},7~{R})-14-[5-[(2~{S},3~{R},4~ {R})-3-amino-2,4-dimethyl-piperidine-1-carbonyl]-7-methoxy-1-methyl-benzimidazol-2-yl]-11,11-difluoro-2-methyl-3,13,19-triazatetracyclo[11.5.2.0^ {5,7}.0^{16,20}] icosa-1(19),14,16(20), 17-tetraen-4-one]
